Assay results reported in article PMC8565993 (International journal for parasitology, 2020).
Like-named read-outs stand apart in the source and are kept apart here.

What was measured:
hERG [1] = target: T1, hERG (Homo sapiens, UniProt Q12809); assay: hERG thallium flux assay
[2] = cited from earlier work
Cryptosporidium parvum [3] = details: ref Arnold et al., cited from earlier work
Toxoplasma gondii [4] = assay: Toxoplasma gondii in vitro growth inhibition; assay type: cell-based; details: read-out: Toxoplasma gondii EC50; 50% reduction in growth
Cryptosporidium parvum [5] = assay: Cryptosporidium parvum in vitro growth inhibition; assay type: cell-based; details: read-out: Cryptosporidium parvum EC50; 50% reduction in growth
Cryptosporidium parvum [6] = assay: C. parvum; assay type: in vivo, mouse; details: >2 log unit reduction in infection
P-glycoprotein (P-gp) = details: compared with efficacious compounds such as BKI-1369; ref Arnold et al., 2019; cited from earlier work
[7] = Plasma exposure after oral dosing in mice; assay type: in vivo, mouse; details: at the toxic dose of the same table row
[8] = QD in mice
TgCDPK1 = target: T2, TgCDPK1 (Toxoplasma gondii, UniProt Q9BJF5); assay type: biochemical; details: read-out: TgCDPK1 IC50
T2 sequence (Q9BJF5 1-507): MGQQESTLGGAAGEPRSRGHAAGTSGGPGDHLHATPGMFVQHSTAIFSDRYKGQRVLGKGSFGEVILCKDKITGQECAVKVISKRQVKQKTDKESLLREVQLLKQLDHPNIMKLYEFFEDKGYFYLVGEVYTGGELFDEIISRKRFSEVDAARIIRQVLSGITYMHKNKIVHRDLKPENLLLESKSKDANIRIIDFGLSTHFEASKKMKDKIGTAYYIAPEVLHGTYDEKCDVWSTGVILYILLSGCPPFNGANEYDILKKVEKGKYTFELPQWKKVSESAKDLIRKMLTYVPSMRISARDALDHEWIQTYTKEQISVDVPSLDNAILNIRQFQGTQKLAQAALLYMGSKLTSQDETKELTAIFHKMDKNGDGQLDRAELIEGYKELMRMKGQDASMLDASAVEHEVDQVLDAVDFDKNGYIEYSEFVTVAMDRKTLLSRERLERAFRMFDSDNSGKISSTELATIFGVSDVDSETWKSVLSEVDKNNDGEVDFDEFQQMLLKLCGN

[9] = cited from earlier work; remark: listed apart in the source
CpCDPK1 = target: T3, CpCDPK1 (Cryptosporidium parvum, UniProt A3FQ16); assay type: biochemical; details: read-out: CpCDPK1 IC50
T3 sequence (A3FQ16 1-538): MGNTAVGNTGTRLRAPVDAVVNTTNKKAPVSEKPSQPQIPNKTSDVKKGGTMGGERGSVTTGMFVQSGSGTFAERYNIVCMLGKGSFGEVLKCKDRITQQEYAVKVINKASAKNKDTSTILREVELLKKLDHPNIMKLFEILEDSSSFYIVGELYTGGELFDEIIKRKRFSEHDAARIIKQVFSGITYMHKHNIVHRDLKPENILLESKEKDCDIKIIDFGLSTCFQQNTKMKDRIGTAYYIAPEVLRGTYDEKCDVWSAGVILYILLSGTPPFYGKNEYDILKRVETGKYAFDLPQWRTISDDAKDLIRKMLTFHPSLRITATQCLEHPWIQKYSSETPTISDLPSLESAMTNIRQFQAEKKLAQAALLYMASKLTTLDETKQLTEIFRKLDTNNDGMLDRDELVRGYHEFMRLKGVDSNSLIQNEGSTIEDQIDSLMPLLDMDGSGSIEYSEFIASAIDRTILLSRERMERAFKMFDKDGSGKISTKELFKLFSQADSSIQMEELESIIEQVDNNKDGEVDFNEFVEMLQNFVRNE

hERG [10] = target: T1, hERG; assay: hERG automated patch clamp; assay type: cell-based; details: read-out: hERG Qpatch IC50
[11] = assay type: in vivo
[12] = Toxicity and safety in calves; assay type: in vivo, calf; details: 3X maximal therapeutic doses; unpublished data
Toxoplasma gondii [13] = assay: T. gondii mouse efficacy model; assay type: in vivo; details: QD
Human PKD3 = target: T4, Human PKD3 (Homo sapiens, UniProt O94806); assay: Human PKD3 kinase inhibition; assay type: biochemical; details: read-out: Human PKD3 IC50
T4 sequence (O94806 1-890): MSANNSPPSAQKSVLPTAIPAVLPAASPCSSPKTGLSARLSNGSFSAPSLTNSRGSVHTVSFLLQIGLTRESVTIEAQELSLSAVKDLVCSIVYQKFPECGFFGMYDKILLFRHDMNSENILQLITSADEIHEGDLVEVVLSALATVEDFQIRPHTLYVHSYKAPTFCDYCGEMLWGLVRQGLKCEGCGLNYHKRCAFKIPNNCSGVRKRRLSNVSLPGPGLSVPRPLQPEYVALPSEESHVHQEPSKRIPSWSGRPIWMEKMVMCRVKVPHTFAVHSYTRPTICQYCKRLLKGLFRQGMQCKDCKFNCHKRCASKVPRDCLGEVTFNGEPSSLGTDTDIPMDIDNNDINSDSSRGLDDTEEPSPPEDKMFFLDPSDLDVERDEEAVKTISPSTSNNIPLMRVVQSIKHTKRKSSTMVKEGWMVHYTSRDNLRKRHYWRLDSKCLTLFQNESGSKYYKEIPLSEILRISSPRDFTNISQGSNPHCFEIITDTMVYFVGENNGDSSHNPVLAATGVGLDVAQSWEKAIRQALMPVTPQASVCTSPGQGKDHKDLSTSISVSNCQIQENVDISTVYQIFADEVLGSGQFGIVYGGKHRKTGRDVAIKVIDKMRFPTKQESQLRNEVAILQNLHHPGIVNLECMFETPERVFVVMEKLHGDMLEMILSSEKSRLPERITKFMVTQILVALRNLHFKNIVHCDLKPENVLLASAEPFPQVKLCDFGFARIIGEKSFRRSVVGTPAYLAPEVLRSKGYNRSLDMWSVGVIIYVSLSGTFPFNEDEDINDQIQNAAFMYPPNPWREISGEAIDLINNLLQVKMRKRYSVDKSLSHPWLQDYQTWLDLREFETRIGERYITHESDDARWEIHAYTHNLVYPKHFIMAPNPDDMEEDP

[14] = assay type: in vivo; details: mouse pregnancy safety dose 50 mg/kg
[15] = mice, 30 mg/kg oral dose, ref Hulverson et al., 2017a, 30 mg/kg
[16] = mice, 30 mg/kg oral dose, ref Hulverson et al., 2017a, listed as 1369, 30 mg/kg

T1 sequence (Q12809 whole entry): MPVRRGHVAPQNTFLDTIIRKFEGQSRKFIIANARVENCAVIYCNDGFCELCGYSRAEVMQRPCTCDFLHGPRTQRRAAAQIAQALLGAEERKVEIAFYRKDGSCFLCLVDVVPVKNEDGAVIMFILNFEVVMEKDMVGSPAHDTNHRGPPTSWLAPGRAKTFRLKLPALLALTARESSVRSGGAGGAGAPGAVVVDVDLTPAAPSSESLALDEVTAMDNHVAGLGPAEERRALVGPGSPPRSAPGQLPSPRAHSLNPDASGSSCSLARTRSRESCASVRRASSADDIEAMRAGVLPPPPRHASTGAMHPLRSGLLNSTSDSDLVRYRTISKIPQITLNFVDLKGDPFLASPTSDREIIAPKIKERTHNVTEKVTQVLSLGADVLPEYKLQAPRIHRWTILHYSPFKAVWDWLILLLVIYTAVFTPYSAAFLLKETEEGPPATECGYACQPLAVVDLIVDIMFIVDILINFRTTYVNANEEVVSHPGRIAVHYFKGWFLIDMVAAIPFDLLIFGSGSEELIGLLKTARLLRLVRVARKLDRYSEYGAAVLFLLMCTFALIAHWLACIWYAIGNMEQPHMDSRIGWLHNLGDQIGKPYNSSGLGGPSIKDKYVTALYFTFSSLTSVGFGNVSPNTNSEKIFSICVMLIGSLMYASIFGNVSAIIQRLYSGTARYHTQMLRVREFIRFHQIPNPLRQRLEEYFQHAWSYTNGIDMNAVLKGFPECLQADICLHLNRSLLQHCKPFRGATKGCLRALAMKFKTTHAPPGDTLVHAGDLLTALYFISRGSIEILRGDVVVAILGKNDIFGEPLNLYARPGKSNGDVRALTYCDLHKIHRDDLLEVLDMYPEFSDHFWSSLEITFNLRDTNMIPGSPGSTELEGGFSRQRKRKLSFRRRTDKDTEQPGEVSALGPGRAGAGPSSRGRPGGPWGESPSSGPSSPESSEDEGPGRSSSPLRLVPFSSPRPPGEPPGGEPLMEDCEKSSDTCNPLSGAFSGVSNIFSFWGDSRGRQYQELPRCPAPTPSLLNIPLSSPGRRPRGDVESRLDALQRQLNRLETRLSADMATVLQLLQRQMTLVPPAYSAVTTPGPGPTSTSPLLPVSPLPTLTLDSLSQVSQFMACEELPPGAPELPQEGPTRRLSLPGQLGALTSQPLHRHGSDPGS

In the case of `CCOc1ccc2cc(-c3nn(CC4CCN(C)CC4)c4ncnc(N)c34)ccc2c1` [BKI-1294], the IC50 (hERG [1]) is given as 790 nM, the “hERG Thallium Flux IC50” value (hERG [1]) is given as “submicromolar” and the “Levels reached in tissues of the GI tract” value ([2]; infected mice, ref Arnold et al., 2017) is given as “reached high levels in all tissues of the GI tract”. For the same compound, the “Efficacy against Cryptosporidium infection in mice” value (Cryptosporidium parvum [3]; 2017) was “significantly reduced infection”, the EC50 (Toxoplasma gondii [4]) was 137 nM and the EC50 (Cryptosporidium parvum [5]) was 2220 nM. For the same compound, the “C. parvum efficacious dose in mice” value (Cryptosporidium parvum [6]; QD) was 100 mg/kg QD.

For `CCOc1ccc2cc(-c3nn(CC4CCNCC4)c4ncnc(N)c34)ccc2n1` [BKI-1318], the Efflux ratio (P-glycoprotein (P-gp)) is listed as “much higher efflux ratio”, the “Efficacy against Cryptosporidium when the P-gp pumps were inhibited” value (Cryptosporidium parvum [3]; P-gp pumps inhibited, 2019) is listed as “greatly improved” and the “Efficacy against Cryptosporidium” value (Cryptosporidium parvum [3]; 2019) is listed as “failed to be efficacious”.

With `CCOc1ccc2cc(-c3nn(CC4CCN(C)CC4)c4ncnc(N)c34)ccc2n1` [BKI-1369] the “Observed maximum plasma exposure at toxic dose” value [7] was 8.3 ± 0.2 µM, the “Thallium flux IC50 relative to that of BKI-1294” value (hERG [1]; higher IC50 than BKI-1294) was > 10 fold and the “Dose at which toxicity was observed” value [8] was 300 (QD in mice) mg/kg. The IC50 (TgCDPK1) was 6.1 nM, the “Toxicity on repeated dosing” value ([9]; 50 mg/kg for 5 days, ref Hulverson et al., 2017a) was “multiple signs of toxicity” and the “Daily dose with no signs of GI side effects” value ([9]; mouse, in vivo) was “up to 150 mg/kg”. For the same compound, the IC50 (CpCDPK1) was 0.9 nM, the “Observed maximum gastrointestinal tissue exposure after single dose, ascending colon” value [2, 15] was 23 µM and the “Observed maximum gastrointestinal tissue exposure after single dose, cecum” value [2, 15] was 20 µM. For the same compound, the “Observed maximum gastrointestinal tissue exposure after single dose, duodenum” value [2, 15] was > 76 µM, the “Observed maximum gastrointestinal tissue exposure after single dose, jejunum/ileum” value [2, 15] was 39 µM and the “Observed maximum gastrointestinal tissue exposure after single dose, cecum” value [2, 16] was 20 ± 6 µM. The “Observed maximum gastrointestinal tissue exposure after single dose, duodenum” value [2, 16] was 76 ± 41 µM, the IC50 (hERG [10]) was ~1000 nM and the IC50 (hERG [10]; listed as 1369) was 970 nM. For the same compound, the “Dog CV safety: ↓dP/dt (plasma conc.)” value ([11]; anesthetized dog, decreased cardiac contractility) was 9.3 µM, the “Dog CV safety: ↑SVR (plasma conc.)” value ([11]; anesthetized dog, increased systemic vascular resistance) was 129 µM and the “Dog CV safety: complete CV collapse (plasma conc.)” value ([11]; dog, in vivo) was > 50 µM. The “Dog CV safety: ↑QTcV (plasma conc.)” value ([11]; dog, in vivo) was ~1.7 µM, the “Dog CV safety: ↓CO (plasma conc.)” value ([11]; dog, in vivo) was 9.3 µM and the “Dog CV safety: ↓HR (plasma conc.)” value ([11]; dog, in vivo) was 50 µM. The “Cardiovascular effects in calves” value [12] was “have not been detected”, the EC50 (Cryptosporidium parvum [5]) was 2500 nM and the “C. parvum efficacious dose in mice” value (Cryptosporidium parvum [6]; QD) was 30 mg/kg QD.

In the case of `CCOc1ccc2cc(-c3nn(C(C)(C)C)c(N)c3C(N)=O)cnc2c1` [BKI-1517], the “T. gondii efficacious dose in mice” value (Toxoplasma gondii [13]; >2 log unit reduction in infection) is reported as 60 mg/kg QD, the “T. gondii efficacious dose in mice” value (Toxoplasma gondii [13]; ≥2 log reduction in infection) is reported as 60 mg/kg QD and the IC50 (hERG [1]) is reported as > 30000 nM. For the same compound, the IC50 (Human PKD3) was 1110 nM, the “Fertility (pregnant dams)” value [14] was 2 of 7 and the Total pups born [14] was 0. The EC50 (Toxoplasma gondii [4]) was 257 nM, the IC50 (hERG [10]) was > 16700 nM and the EC50 (Cryptosporidium parvum [5]) was 649 nM. For the same compound, the “C. parvum efficacious dose in mice” value (Cryptosporidium parvum [6]; BID) was 30 mg/kg BID.

`CCOc1ccc2cc(-c3nn(C4CCOCC4)c(N)c3C(N)=O)ccc2n1` [BKI-1841] showed an IC50 (TgCDPK1) of 30.1 nM, an IC50 (CpCDPK1) of 2.8 nM and an EC50 (Toxoplasma gondii [4]) of 130 nM. The EC50 (Cryptosporidium parvum [5]) was 1210 nM.
